Results from patent US20090227456A1, “Process for Combating Water Polluted By Algae” (priority 2006, published 2009).

Legend:
[1] = tested on: polluting algae of the Dianchi water; experiment: Experiments on the shore of polluted lake Dianchi: acidization of the water by carbon dioxide; format: in vivo
Text: (§1) Subsequent experiments have verified that the extermination occurred when the pH value of the water is reduced to 5.8 or less. Dead algal remains can be filtered out when acidized polluted water by the new filtering system of aquitransistor/filter, and the filtered water is suitable as source of urban water supply. […] Those discoveries and previous developments were patented to teach the use of carbon dioxide as algicide in environmental rehabilitation of polluted lakes and streams for urban water supply. The two Patent applications are:
The Dianchi water with pH values ranging up to 9 was reduced to less than 6, and the empirical rate was estimated in experiments to reduce the pH value by three units. The amount of dissolving carbon dioxide into alkaline waters to combate pollution is substantial. To suppress the algal growth in streams, ponds, swimming pools or fish tanks, the quantity of carbon dioxide required is small. The purpose is less to reduce carbon dioxide emission, but to maintain the cleanness of the water body. The growth of algae can be suppressed if the pH of water is maintained at 7, through the dissolution of carbon dioxide in water. The requirement is in the range of 10-100 grams carbon dioxide for one cubic-meter volume of water, depending the atmosphere-water interchange rate, and other factors. […] Since the main expenditure will be acidization, which is about 30$ per ton, the cost of maintaining algae-free swimming pool should be less than a few dollars per week. Very small metal containers for acidization of […] to produce carbon dioxide can be attached to fish tanks. The occasional bubbling of carbon dioxide to neutralize the alkalinity of water would not only be functional, but also fascinating to children owning the pet fish, and to their mother would not have to slave every month to clean up the algal pollution. Where medium or small quantifies of carbon dioxide are required, we recommend the use of carbon dioxide produced by the acidization of carbonates. The by-product CaCl2 is useful, but has little commercial value. […]

[2] = tested on: green algae, blue-green algae and other polluting algae; experiment: Experiments in Beijing: suppression of algal growth by keeping water pH low; format: in vivo
Text: as §1
The Dianchi water with pH values ranging up to 9 was reduced to less than 6, and the empirical rate was estimated in experiments to reduce the pH value by three units. The amount of dissolving carbon dioxide into alkaline waters to combate pollution is substantial. To suppress the algal growth in streams, ponds, swimming pools or fish tanks, the quantity of carbon dioxide required is small. The purpose is less to reduce carbon dioxide emission, but to maintain the cleanness of the water body. The growth of algae can be suppressed if the pH of water is maintained at 7, through the dissolution of carbon dioxide in water. […] Where medium or small quantifies of carbon dioxide are required, we recommend the use of carbon dioxide produced by the acidization of carbonates. […]

O=C=O [carbon dioxide]
extermination of polluting algae after acidization of the water ([1]; Dianchi lake water acidized by carbon dioxide): all be exterminated | empirical rate of CO2 to reduce the pH value by three units ([1]; Dianchi water, pH up to 9 reduced to less than 6): 2 kg CO2 per ton water | pH of Dianchi water after treatment ([1]; starting pH values ranging up to 9, 2 kg CO2 per ton water): less than 6 pH | pH value of the water at which extermination occurred ([1]; water acidized by carbon dioxide): ≤ 5.8 pH | pH value of water at which algal growth is suppressed ([2]; pH kept at this value or below): ≤ 7.0 pH | carbon dioxide requirement to suppress algal growth (pH maintained at 7) ([2]; streams, ponds, swimming pools or fish tanks, depends on atmosphere-water interchange rate): 10-100 grams carbon dioxide for one cubic-meter volume of water
